Laboratory results as given in PubChem BioAssay AID256 (DTP/NCI, 2004).
Several values for one entry are separate records, joined by “and”; a condition that tells them apart may be missing. Identical values can stand only once. Toxic doses and inconclusive results are not listed.

System: CD2F1 mice, L1210 leukemia ip, survival T/C
Assay: NCI In Vivo Anticancer Drug Screen. Data for tumor model L1210 Leukemia (intraperitoneal) in CD2F1 (CDF1) mice
Settings: endpoint: mean survival time, higher = longer survival
Outline: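 In this screen, transplantable tumors were grown in mice given either the compound or its vehicle. Results were expressed as the treated measurement relative to the control measurement.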

[1] = dose: 100.0 mg/kg/injection, schedule: Q01DX009 (ip), vehicle: saline with Tween-80
[2] = dose: 200.0 mg/kg/injection, schedule: Q01DX009 (ip), vehicle: saline with Tween-80
[3] = dose: 400.0 mg/kg/injection, schedule: Q01DX009 (ip), vehicle: saline with Tween-80
[4] = dose: 50.0 mg/kg/injection, schedule: Q04DX002 (ip), vehicle: saline with Tween-80
[5] = dose: 100.0 mg/kg/injection, schedule: Q04DX003 (ip), vehicle: saline with Tween-80
[6] = dose: 200.0 mg/kg/injection, schedule: Q04DX003 (ip), vehicle: saline with Tween-80
[7] = dose: 400.0 mg/kg/injection, schedule: Q04DX003 (ip), vehicle: saline with Tween-80
[8] = dose: 75.0 mg/kg/injection, schedule: Q01DX001 (ip), vehicle: saline
[9] = dose: 150.0 mg/kg/injection, schedule: Q01DX001 (ip), vehicle: saline
[10] = dose: 100.0 mg/kg/injection, schedule: Q01DX001 (ip), vehicle: saline
[11] = dose: 100.0 mg/kg/injection, schedule: Q04DX003 (ip), vehicle: saline
[12] = dose: 200.0 mg/kg/injection, schedule: Q04DX003 (ip), vehicle: saline
[13] = dose: 100.0 mg/kg/injection, schedule: Q04DX002 (ip), vehicle: saline with Tween-80
[14] = dose: 200.0 mg/kg/injection, schedule: Q04DX002 (ip), vehicle: saline with Tween-80

In the case of C=CC(=O)Nc1cccc(OC(=O)NCC)c1, the T/C [1] is reported as 94 % of control, the T/C [2] is reported as 92 % of control and the T/C [3] is reported as 97 % of control.

ClC(Cl)=C(c1ccc(Cl)cc1)c1ccc(Cl)cc1 was tested, and the T/C [1] was 103 % of control, the T/C [2] was 97 % of control and the T/C [3] was 101 % of control.

With COc1ccc(C2(O)C3CCC2CC3)cc1 (stereo unspecified) the T/C (dose: 12.5 mg/kg/injection, schedule: Q04DX002 (ip), vehicle: saline with Tween-80) was 96 % of control, the T/C (dose: 25.0 mg/kg/injection, schedule: Q04DX002 (ip), vehicle: saline with Tween-80) was 101 % of control and the T/C [4] was 108 % of control.

In the case of Nc1ccc(CCCCNC(=O)c2ccccc2)cc1, the T/C [5] is reported as 93 % of control, the T/C [6] is reported as 96 % of control and the T/C [7] is reported as 90 % of control.

For N=c1ccccn1CCO, the T/C [8] was 100 % of control and the T/C [9] was 108 % of control.

For O=C(CCl)Cc1ccccc1, the T/C (dose: 50.0 mg/kg/injection, schedule: Q04DX003 (ip), vehicle: saline) was 98 % of control, the T/C [10] was 104 % of control and the T/C [11] was 92 % of control. For the same compound, the T/C (dose: 200.0 mg/kg/injection, schedule: Q01DX001 (ip), vehicle: saline) was 103 % of control and the T/C [12] was 101 % of control.

For CC1=C(N=[N+]=[N-])C(=O)c2ccccc2C1=O, the T/C [13] was 91 % of control and the T/C [14] was 100 % of control.

C/C([O-])=C/[S+](C)(=O)N(C)C (stereo unspecified) was tested, and the T/C (dose: 25.0 mg/kg/injection, schedule: Q01DX001 (ip), vehicle: saline) was 103 % of control, the T/C (dose: 50.0 mg/kg/injection, schedule: Q01DX001 (ip), vehicle: saline) was 109 % of control and the T/C [10] was 96 % of control.

C[n+]1cc(Br)c2ccccc2c1 was tested, and the T/C [8] was 100 % of control and the T/C [9] was 103 % of control.

With CCCCCCCCCCCCCCCC(=O)N(CCCN(C)C)CCCN(CCCN(C)C)C(=O)CCCCCCCCCCCCCCC the T/C (dose: 1.56 mg/kg/injection, schedule: Q01DX009 (ip), vehicle: water) was 101 % of control, the T/C (dose: 3.13 mg/kg/injection, schedule: Q01DX009 (ip), vehicle: water) was 98 % of control and the T/C (dose: 6.25 mg/kg/injection, schedule: Q01DX009 (ip), vehicle: water) was 95 % of control. For the same compound, the T/C (dose: 12.5 mg/kg/injection, schedule: Q01DX009 (ip), vehicle: water) was 94 % of control and 95 % of control and the T/C (dose: 25.0 mg/kg/injection, schedule: Q01DX009 (ip), vehicle: water) was 95 % of control.

CCCCCCC(Sc1n[nH]c(=O)[nH]c1=O)C(=O)OCC (stereo unspecified) was tested, and the T/C (dose: 12.5 mg/kg/injection, schedule: Q01DX005 (ip), vehicle: distilled water + Tween-80) was 97 % of control, the T/C (dose: 25.0 mg/kg/injection, schedule: Q01DX005 (ip), vehicle: distilled water + Tween-80) was 102 % of control and the T/C (dose: 50.0 mg/kg/injection, schedule: Q01DX005 (ip), vehicle: distilled water + Tween-80) was 102 % of control. The T/C (dose: 100.0 mg/kg/injection, schedule: Q01DX005 (ip), vehicle: distilled water + Tween-80) was 96 % of control and the T/C (dose: 200.0 mg/kg/injection, schedule: Q01DX005 (ip), vehicle: distilled water + Tween-80) was 97 % of control.

With O=c1c2ccccc2nc2c3ccccc3nnn12 the T/C [4] was 98 % of control, the T/C [13] was 120 % of control and the T/C [14] was 91 % of control.

C#CCOc1ccccc1O was tested, and the T/C (dose: 100.0 mg/kg/injection, schedule: Q04DX003 (ip), vehicle: acetone) was 101 % of control, the T/C (dose: 200.0 mg/kg/injection, schedule: Q04DX003 (ip), vehicle: acetone) was 103 % of control and the T/C (dose: 400.0 mg/kg/injection, schedule: Q04DX003 (ip), vehicle: acetone) was 95 % of control.

CCNc1ncnc2c1c(C(N)=S)cn2C1OC(CO)C(O)C1O (stereo unspecified) was tested, and the T/C (dose: 6.25 mg/kg/injection, schedule: Q01DX009 (ip), vehicle: saline) was 116 % of control, the T/C (dose: 12.5 mg/kg/injection, schedule: Q01DX009 (ip), vehicle: saline) was 116 % of control and the T/C (dose: 25.0 mg/kg/injection, schedule: Q01DX009 (ip), vehicle: saline) was 150 % of control.

CC1CC(=O)C2=C(C1)NC(=O)CC2 (stereo unspecified) was tested, and the T/C [5] was 90 % of control, the T/C [6] was 96 % of control and the T/C [7] was 101 % of control.

For N#C/C(=C\c1c(Cl)cccc1Cl)c1ccc([N+](=O)[O-])cc1, the T/C [1] was 97 % of control, the T/C [2] was 88 % of control and the T/C [3] was 91 % of control.

With CCOC/C(C)=C/Cl the T/C (dose: 100.0 mg/kg/injection, schedule: Q01DX009 (ip), vehicle: acetone) was 106 % of control and the T/C (dose: 200.0 mg/kg/injection, schedule: Q01DX009 (ip), vehicle: acetone) was 103 % of control.

For Cc1ccccc1NCS(=O)(=O)O, the T/C [11] was 101 % of control, the T/C [12] was 104 % of control and the T/C (dose: 400.0 mg/kg/injection, schedule: Q04DX003 (ip), vehicle: saline) was 98 % of control.
